{"source": "patent US20100305095A1", "about": "“Use of HPPD Inhibitors in the Treatment of Depression and/or Withdrawal Symptoms Associated with Addictive Drugs” (priority 2006, published 2010)", "assay_type_in_all_cases": "in vivo", "key": {"[1]": {"test_system": "plasma tyrosine, dopamine levels and dopamine turnover", "assay": "Plasma tyrosine, dopamine levels and dopamine turnover in orally dosed mice", "conditions": "0.1 mg/Kg oral; for plasma tyrosine levels: vs vehicle control", "description": "Illustration of increase in levels and turnover of dopamine as a mechanism for treatment/prevention of depression and treatment of the withdrawal symptoms associated with withdrawal from an addictive drug such as cocaine. 10 mice were dosed orally with 0.1 mg/Kg of 2-(2-Nitro-4-Trifluoromethylbenzoyl)-1,3-Cyclohexanedione. As a control, 10 mice were orally dosed with the dosing vehicle. After 24 hours, plasma tyrosine levels were identified. Dopamine levels and dopamine turnover were also analysed. 10 mice were dosed orally with 0.1 mg/Kg of 2-(2-Nitro-4-Trifluoromethylbenzoyl)-1,3-Cyclohexanedione. As a control, 9 mice were orally dosed with the dosing vehicle. After 6 hours, plasma tyrosine levels were identified. Dopamine levels and dopamine turnover were also analysed."}, "[2]": {"test_system": "plasma tyrosine, dopamine turnover and noradrenaline levels", "assay": "Plasma tyrosine, dopamine turnover and noradrenaline levels in orally dosed rats", "conditions": "2 mg/Kg oral, after 24 hours", "description": "10 rats were dosed orally with 2 mg/Kg of 2-(2-Nitro-4-Trifluoromethylbenzoyl)-1,3-Cyclohexanedione. As a control, 10 rats were orally dosed with the dosing vehicle. After 24 hours, plasma tyrosine levels were identified. Dopamine levels and dopamine turnover and noradrenaline levels were also analysed."}, "[3]": {"test_system": "rats", "assay": "Activity cage with automatic infrared activity monitoring (rearing, activity, mobility) in rats", "conditions": "2 mg/Kg oral, after 4 hours, one hour in activity cage", "description": "Analysis of stimulatory effect of HPPD inhibitors as a mechanism for the treatment of withdrawal symptoms associated with an addictive drug such as nicotine. 12 rats were dosed orally with 2 mg/Kg of 2-(2-Nitro-4-Trifluoromethylbenzoyl)-1,3-Cyclohexanedione. As a control, 12 rats were orally dosed with the dosing vehicle. After 4 hours, animals were each placed in an activity cage for one hour, containing an automatic activity monitoring system with infrared beams to determine activity and mobility."}}, "data": [{"smiles": "O=C1CCCC(O)=C1C(=O)c1ccc(C(F)(F)F)cc1[N+](=O)[O-]", "note": "[2-(2-Nitro-4-Trifluoromethylbenzoyl)-1,3-Cyclohexanedione]", "values": [{"measurement": "dopamine increase compared with the mean of the controls", "setting": "[1]; after 6 hours", "result": "up to 15%"}, {"measurement": "dopamine turnover increase compared with the mean of the controls", "setting": "[1]; after 6 hours", "result": "up to 15%"}, {"measurement": "plasma tyrosine levels", "setting": "[1]; after 6 hours", "result": "elevated"}, {"measurement": "dopamine increase compared with the mean of the controls", "setting": "[1]; after 24 hours", "result": "up to 16%"}, {"measurement": "dopamine turnover increase compared with the mean of the controls", "setting": "[1]; after 24 hours", "result": "up to 27%"}, {"measurement": "plasma tyrosine levels", "setting": "[1]; after 24 hours", "result": "elevated"}, {"measurement": "dopamine turnover increase in the treated compared with the control group", "setting": "[2]", "result": 25, "unit": "%"}, {"measurement": "noradrenaline increase compared with the mean of the controls", "setting": "[2]; cortex", "result": "up to 76%"}, {"measurement": "noradrenaline increase compared with the mean of the controls", "setting": "[2]; hypothalamus", "result": "≤ 21", "unit": "%"}, {"measurement": "plasma tyrosine levels", "setting": "[2]; vs vehicle control", "result": "elevated"}, {"measurement": "active time, decrease compared with the control group", "setting": "[3]", "result": "~27", "unit": "%"}, {"measurement": "activity counts, decrease compared with the control group", "setting": "[3]", "result": "approximately 43%"}, {"measurement": "centre rearing counts, increase compared with the control group", "setting": "[3]", "result": 63, "unit": "%"}, {"measurement": "effect on rearing behaviour", "setting": "[3]", "result": "mild stimulatory effect"}, {"measurement": "mean rearing counts, increase compared with the control group", "setting": "[3]", "result": 91, "unit": "%"}, {"measurement": "mobile time, decrease compared with the control group", "setting": "[3]", "result": "~49", "unit": "%"}, {"measurement": "rearing time, increase compared with the control group", "setting": "[3]", "result": 79, "unit": "%"}]}]}
